For 65 compounds, logP and solubility results are on record in the OPERA property sets (Mansouri et al. 2018).

Converted amounts (≈) assume the structure as drawn.

For the compound `c1ccc2[nH]c(-c3cscn3)nc2c1`, the logP was 2.47.

`CNS(=O)(=O)Cc1ccc2[nH]cc(CCN(C)C)c2c1`: the logP was determined as 0.93.

Take `CCn1cc(C(=O)O)c(=O)c2cc(F)c(N3CCNC(C)C3)c(F)c21` (stereo not given): the logP is -0.3.

In turn, `CCN(CC)P(=O)(N(C)C)N(C)C` came in with a logP of 0.66.

`CCOCCOCCO`: the logP was -0.54.

In turn, `Clc1ccc2ccc(Cl)cc2c1` gave a logP of 4.81.

In turn, `N#CCCCCCC#N` gave a logP of 0.05.

Compound `COc1cccc(N=c2snc3sc(S(N)(=O)=O)nn23)c1` displayed a logP of 2.66.

Regarding `Clc1ccc2c(Cl)c(Cl)c(Cl)c(Cl)c2c1`, the logP was 7.

`C=CC(=O)NCCc1cnc[nH]1`: the logP was -0.21.

Consider `CCOC1OC2OC3(C)CC(O)C4C(C)CCC(C1C)C24OO3` (stereo not given), for which the logP was 2.7.

`N=C(N)NN=C1C=CC(=NNC(N)=S)C=C1` had a logP of 1.23.

Regarding `Nc1ccc([N+](=O)[O-])cc1Cl`, the logP amounted to 2.14.

In turn, `Nc1cc([N+](=O)[O-])ccc1Cl` came in with a logP of 2.23.

The compound `ClC1=C(Cl)C2(Cl)C3CC=CC3C1(Cl)C2(Cl)Cl` (stereo not given) showed a logP of 5.57.

For the compound `ClC=C1C2C(Cl)C(Cl)C(C2Cl)C1(CCl)CCl` (stereo not given), the logP was determined as 5.35.

In turn, `CC(=O)OC(c1ccc(Cl)c(Cl)c1)C(Cl)(Cl)Cl` (stereo not given) displayed a logP of 4.92.

On to `Nc1c(Cl)c(Cl)c(N)c2c1C(=O)c1ccccc1C2=O`, for which the log partition coefficient (logP) stood at 4.56.

Compound `CN1CC=C(c2ccc(Cl)cc2)CC1` came in with a logP of 3.32.

Regarding `OC(CNC1CCCCC1Br)Cn1ccnc1` (stereo not given), the logP was determined as 1.21.

For the compound `O=[N+]([O-])c1c2ccccc2cc2ccccc12`, the logP amounted to 4.78.

`Nc1c(Oc2ccccc2)c(Oc2ccccc2)c(N)c2c1C(=O)c1ccccc1C2=O`: the lipophilicity (logP) was 5.19.

Compound `NCCCN1c2ccccc2Sc2ccc(Cl)cc21` came in with a logP of 4.47.

`CC1=NS(=O)(=O)c2ncccc2N1` had a logP of -0.91.

On to `CC(=O)OCCOCn1cnc2cnc(N)nc21`, for which the logP is -0.61.

For `COCOCCn1cnc2c(=N)n(C)c(=O)[nH]c21`, the logP was -1.52.

Take `C[C@@H]1CC[C@H](C)O1`: the logP came out at 1.22.

Turning to `CN(CCO)C(=O)COC(=O)c1ccccc1O`, the logP was determined as 0.86.

In turn, `NC(=O)NCCCn1nc(-c2ccccc2)ccc1=O` came in with a lipophilicity (logP) of 0.69.

`CN(C)P1(=O)N(C)CCN1C` yielded a logP of 0.02.

With `O=C(c1ccc(Cl)cc1)c1cc(F)ccc1O`, the logP was determined as 4.05.

`CCOC(=O)c1ccccc1C(=O)OCC`: the log partition coefficient (logP) was found to be 2.42.

Compound `COc1ncnc2c1ncn2C1OC(COC(=O)C(C)(C)C)C(O)C1OC(=O)C(C)(C)C` (stereo not given) gave a logP of 3.4.

`O=[N+]([O-])c1cncn1CCN1CCOCC1` gave a logP of 0.07.

Regarding `c1ccc2c(c1)ccc1c3ccccc3ccc21`, the logP was 5.81.

As for `CCn1cc(C(=O)NC(C)C(=O)OC)c(=O)c2ccc(C)nc21` (stereo not given), the logP was determined as 2.47.

In turn, `CCCN1CCOC2c3cccc(O)c3CCC21` (stereo not given) had a logP of 2.22.

`Cc1cccc(O[Si]23OCCN(CCO2)CCO3)c1`: the logP worked out at 0.15.

Compound `Cc1sc(C(=O)Nc2nnn[nH]2)c(OC(C)C)c1Br` registered a logP of 1.72.

`CCOC(=O)COc1cccc2ccccc12` returned a logP of 2.9.

For the compound `Cc1ccc(-c2ccc(C)cc2)cc1`, the logP came to 5.09.

Compound `ClCC1(CCl)C2C(Cl)C(Cl)(Cl)C1(C(Cl)Cl)CC2(Cl)Cl` (stereo not given) returned a logP of 6.26.

`C=C(Br)CC1(C(C)CC)C(=O)NC(=O)NC1=O` (stereo not given): the logP amounted to 2.2.

Regarding `CC(C(=O)Nc1ccc([N+](=O)[O-])c(C(F)(F)F)c1)C(F)(F)F` (stereo not given), the logP is 3.71.

In the case of `CCCCCCN1CC(C(=O)OC)CC1=O` (stereo not given), the logP came out at 2.3.

Compound `CC1=C(C(=O)OC(C)C)C(c2cccc([N+](=O)[O-])c2)C(C(=O)OC2CN(C(c3ccccc3)c3ccccc3)C2)=C(N)N1` (stereo not given) registered a logP of 5.18.

Compound `N#CC(C#N)=Cc1ccc(Cl)o1` yielded a logP of 2.17.

The compound `Clc1cc(Cl)c(-c2ccc(Cl)c(Cl)c2Cl)cc1Cl` gave a log partition coefficient (logP) of 7.44.

The compound `CSCCCOc1ccc([N+](=O)[O-])cc1` displayed a logP of 3.24.

Compound `O=C(O)CCCCc1ccccc1` yielded a logP of 2.94.

As for `CCOC(=O)C1=C(COCCN)NC(C)=C(C(=O)OC)C1c1ccccc1Cl` (stereo not given), the logP stood at 3.

On to `COc1ccc(Oc2ccc(NC(=O)N(C)C)cc2)cc1`, for which the logP amounted to 2.54.

`CCCC(=O)Oc1c(Br)cc(C#N)cc1Br` gave a logP of 3.94.

Consider `OCCN1CC=C(c2ccccc2)CC1`, for which the logP was found to be 2.

Compound `CCc1ccc(C=[N+]([O-])C(C)(C)C)cc1` came in with a log partition coefficient (logP) of 2.19.

Consider `CCCCCCOc1ccc(N)cc1`, for which the logP turned out to be 3.64.

`O=C([O-])c1ccccc1O.[Na+]` displayed a solubility of 781 mM.

`Nc1ccc(Cl)c(N)c1` yielded a logP of 0.85.

In turn, `Brc1ccc(-c2ccccc2)cc1` returned a logP of 4.96.

Regarding `CCCCCCCCCCCCOC(=O)c1ccc(N)cc1`, the solubility was 1.58e-05 mM (≈ 4.84 ng/mL).

The compound `OCc1ccccc1F` returned a logP of 1.31.

`CCN(CC)CCCC(C)N=c1cc2n(-c3ccc(Cl)cc3)c3ccccc3nc-2cc1Nc1ccc(Cl)cc1` (stereo not given) returned a logP of 7.92.

With `CC(C)N(C(=O)COc1nnc(C(F)(F)F)s1)c1ccc(F)cc1`, the lipophilicity (logP) is 3.2.

As to `NC(=S)NN=Cc1ccco1`, the logP came to 1.64.

For `OCc1cc(Br)cc(Br)c1O`, the logP stood at 2.72.

As a reminder, the logP is the decadic logarithm of the partition coefficient of the neutral form, usually between octanol and water. As usually defined, the solubility is the concentration that dissolves in the medium under given conditions. The low end stands for little dissolved substance, the high end for much dissolved substance.
